# Data: ChEMBL document CHEMBL4229455, “Synthesis and anticancer activity of novel bisindolylhydroxymaleimide derivatives with potent GSK-3 kinase inhibition” (Bioorg Med Chem, 2018)
# What was measured:
# Format in all cases: functional
# UACC-257 = assay: Cytotoxicity against human UACC257 cells assessed as cell growth at 100 uM after 48 hrs by SRB assay relative to control; settings: UACC-257, 48 h, read-out: Activity
# HOP-92 [1] = assay: Cytotoxicity against human HOP92 cells assessed as cell growth at 100 uM after 48 hrs by SRB assay relative to control; settings: HOP-92, 48 h, read-out: Activity
# SK-MEL-2 [2] = assay: Cytotoxicity against human SK-MEL-2 cells after 48 hrs by SRB assay; settings: SK-MEL-2, 48 h
# HCT-15 = assay: Cytotoxicity against human HCT15 cells assessed as cell growth at 100 uM after 48 hrs by SRB assay relative to control; settings: HCT-15, 48 h, read-out: Activity
# T47D = assay: Cytotoxicity against human T47D cells assessed as cell growth at 0.01 uM after 48 hrs by SRB assay relative to control; settings: read-out: Activity
# KM12 [3] = assay: Cytotoxicity against human KM12 cells assessed as cell growth at 1 uM after 48 hrs by SRB assay relative to control; settings: KM12, 48 h, read-out: Activity
# RXF 393 = assay: Cytotoxicity against human RXF393 cells assessed as cell growth at 100 uM after 48 hrs by SRB assay relative to control; settings: RXF 393, 48 h, read-out: Activity
# SK-MEL-28 [4] = assay: Cytotoxicity against human SK-MEL-28 cells assessed as cell growth at 0.01 uM after 48 hrs by SRB assay relative to control; settings: SK-MEL-28, 48 h, read-out: Activity
# SK-MEL-28 [5] = assay: Cytotoxicity against human SK-MEL-28 cells assessed as cell growth at 1 uM after 48 hrs by SRB assay relative to control; settings: SK-MEL-28, 48 h, read-out: Activity
# KM12 [6] = assay: Cytotoxicity against human KM12 cells assessed as cell growth at 0.1 uM after 48 hrs by SRB assay relative to control; settings: KM12, 48 h, read-out: Activity
# Malme-3M = assay: Cytotoxicity against human MALME-3M cells after 48 hrs by SRB assay
# SN12C = assay: Cytotoxicity against human SN12C cells assessed as cell growth at 0.1 uM after 48 hrs by SRB assay relative to control; settings: read-out: Activity
# SW-620 = assay: Cytotoxicity against human SW620 cells assessed as cell growth at 0.1 uM after 48 hrs by SRB assay relative to control; settings: SW-620, 48 h, read-out: Activity
# HT-29 [7] = assay: Cytotoxicity against human HT-29 cells assessed as cell growth at 100 uM after 48 hrs by SRB assay relative to control; settings: HT-29, 48 h, read-out: Activity
# HOP-92 [8] = assay: Cytotoxicity against human HOP92 cells assessed as cell growth at 0.01 uM after 48 hrs by SRB assay relative to control; settings: HOP-92, 48 h, read-out: Activity
# HOP-62 = assay: Cytotoxicity against human HOP62 cells assessed as cell growth at 0.01 uM after 48 hrs by SRB assay relative to control; settings: HOP-62, 48 h, read-out: Activity
# KM12 [9] = assay: Cytotoxicity against human KM12 cells assessed as cell growth at 0.01 uM after 48 hrs by SRB assay relative to control; settings: KM12, 48 h, read-out: Activity
# K562 [10] = assay: Cytotoxicity against human K562 cells after 48 hrs by SRB assay; settings: K562, 48 h
# Hs-578T = assay: Cytotoxicity against human Hs 578T cells after 48 hrs by SRB assay
# OVCAR-5 [11] = assay: Cytotoxicity against human OVCAR5 cells assessed as cell growth at 0.1 uM after 48 hrs by SRB assay relative to control; settings: OVCAR-5, 48 h, read-out: Activity
# MCF7 = assay: Cytotoxicity against human MCF7 cells assessed as cell growth at 1 uM after 48 hrs by SRB assay relative to control; settings: MCF7, 48 h, read-out: Activity
# HT-29 [12] = assay: Cytotoxicity against human HT-29 cells assessed as cell growth at 0.1 uM after 48 hrs by SRB assay relative to control; settings: HT-29, 48 h, read-out: Activity
# NCI-H522 [13] = assay: Cytotoxicity against human NCI-H522 cells assessed as cell growth at 0.1 uM after 48 hrs by SRB assay relative to control; settings: NCI-H522, 48 h, read-out: Activity
# CCRF-CEM = assay: Cytotoxicity against human CCRF-CEM cells assessed as cell growth at 0.1 uM after 48 hrs by SRB assay relative to control; settings: read-out: Activity
# K562 [14] = assay: Cytotoxicity against human K562 cells assessed as cell growth at 1 uM after 48 hrs by SRB assay relative to control; settings: K562, 48 h, read-out: Activity
# HL-60(TB) = assay: Cytotoxicity against human HL-60(TB) cells assessed as cell growth at 1 uM after 48 hrs by SRB assay relative to control; settings: HL-60, 48 h, read-out: Activity
# SK-MEL-2 [15] = assay: Cytotoxicity against human SK-MEL-2 cells assessed as cell growth at 0.1 uM after 48 hrs by SRB assay relative to control; settings: SK-MEL-2, 48 h, read-out: Activity
# DU-145 = assay: Cytotoxicity against human DU145 cells assessed as cell growth at 100 uM after 48 hrs by SRB assay relative to control; settings: DU-145, 48 h, read-out: Activity
# UO-31 [16] = assay: Cytotoxicity against human UO31 cells after 48 hrs by SRB assay; settings: UO-31, 48 h
# MDA-MB-231 = assay: Cytotoxicity against human MDA-MB-231 cells assessed as cell growth at 1 uM after 48 hrs by SRB assay relative to control; settings: MDA-MB-231, 48 h, read-out: Activity
# MOLT-4 = assay: Cytotoxicity against human MOLT4 cells assessed as cell growth at 0.1 uM after 48 hrs by SRB assay relative to control; settings: MOLT-4, 48 h, read-out: Activity
# OVCAR-5 [17] = assay: Cytotoxicity against human OVCAR5 cells assessed as cell growth at 1 uM after 48 hrs by SRB assay relative to control; settings: OVCAR-5, 48 h, read-out: Activity
# UO-31 [18] = assay: Cytotoxicity against human UO31 cells assessed as cell growth at 1 uM after 48 hrs by SRB assay relative to control; settings: UO-31, 48 h, read-out: Activity
# NCI-H522 [19] = assay: Cytotoxicity against human NCI-H522 cells after 48 hrs by SRB assay; settings: NCI-H522, 48 h
# IGROV-1 [20] = assay: Cytotoxicity against human IGROV1 cells assessed as cell growth at 100 uM after 48 hrs by SRB assay relative to control; settings: IGROV-1, 48 h, read-out: Activity
# IGROV-1 [21] = assay: Cytotoxicity against human IGROV1 cells assessed as cell growth at 0.01 uM after 48 hrs by SRB assay relative to control; settings: IGROV-1, 48 h, read-out: Activity
# A498 = assay: Cytotoxicity against human A498 cells after 48 hrs by SRB assay; settings: A498, 48 h
smiles,measurement,setting,value
N#CCCCCCn1cc(C2=C(c3cn(CCCCCC#N)c4ccccc34)C(=O)N(O)C2=O)c2ccccc21,growth at 100 µM,UACC-257,-19%
same,growth at 100 µM,HOP-92 [1],11%
same,GI50,SK-MEL-2 [2],3.38 µM
same,LC50 (concentration killing 50% of cells),SK-MEL-2 [2],> 100 µM
same,TGI,SK-MEL-2 [2],14.9 µM
same,growth at 100 µM,HCT-15,1%
same,growth at 0.01 µM,T47D,99%
same,growth at 1 µM,KM12 [3],102%
same,growth at 100 µM,RXF 393,-25%
same,growth at 0.01 µM,SK-MEL-28 [4],102%
same,growth at 1 µM,SK-MEL-28 [5],103%
same,growth at 0.1 µM,KM12 [6],97%
same,GI50,Malme-3M,12 µM
same,LC50 (concentration killing 50% of cells),Malme-3M,> 100 µM
same,TGI,Malme-3M,62.8 µM
same,growth at 0.1 µM,SN12C,94%
same,growth at 0.1 µM,SW-620,97%
same,growth at 100 µM,HT-29 [7],-33%
same,growth at 0.01 µM,HOP-92 [8],97%
same,growth at 0.01 µM,HOP-62,94%
same,growth at 0.01 µM,KM12 [9],97%
same,GI50,K562 [10],3.59 µM
same,LC50 (concentration killing 50% of cells),K562 [10],> 100 µM
same,TGI,K562 [10],> 100 µM
same,GI50,Hs-578T,3.97 µM
same,LC50 (50% lethal concentration),Hs-578T,> 100 µM
same,TGI,Hs-578T,> 100 µM
same,growth at 0.1 µM,OVCAR-5 [11],89%
same,growth at 1 µM,MCF7,95%
same,growth at 0.1 µM,HT-29 [12],103%
same,growth at 0.1 µM,NCI-H522 [13],86%
same,growth at 0.1 µM,CCRF-CEM,85%
same,growth at 1 µM,K562 [14],94%
same,growth at 1 µM,HL-60(TB),100%
same,growth at 0.1 µM,SK-MEL-2 [15],98%
same,growth at 100 µM,DU-145,12%
same,GI50,UO-31 [16],1.76 µM
same,LC50,UO-31 [16],> 100 µM
same,TGI,UO-31 [16],90.1 µM
same,growth at 1 µM,MDA-MB-231,82%
same,growth at 0.1 µM,MOLT-4,81%
same,growth at 1 µM,OVCAR-5 [17],91%
same,growth at 1 µM,UO-31 [18],59%
same,GI50,NCI-H522 [19],2.59 µM
same,LC50,NCI-H522 [19],> 100 µM
same,TGI,NCI-H522 [19],10.5 µM
same,growth at 100 µM,IGROV-1 [20],-5%
same,growth at 0.01 µM,IGROV-1 [21],104%
same,GI50,A498,2.36 µM
same,LC50,A498,> 100 µM
same,TGI,A498,86 µM
Cn1cc(C2=C(c3cn(C)c4ncccc34)C(=O)NC2=O)c2ccccc21,growth at 100 µM,UACC-257,-12%
same,growth at 100 µM,HOP-92 [1],-21%
same,GI50,SK-MEL-2 [2],3.2 µM
same,TGI,SK-MEL-2 [2],8.28 µM
same,growth at 100 µM,HCT-15,-6%
same,growth at 0.01 µM,T47D,89%
same,growth at 1 µM,KM12 [3],82%
same,growth at 100 µM,RXF 393,-49%
same,growth at 0.01 µM,SK-MEL-28 [4],97%
same,growth at 1 µM,SK-MEL-28 [5],90%
same,growth at 0.1 µM,KM12 [6],102%
same,GI50,Malme-3M,5.47 µM
same,TGI,Malme-3M,52.4 µM
same,growth at 0.1 µM,SN12C,87%
same,growth at 0.1 µM,SW-620,96%
same,growth at 100 µM,HT-29 [7],-10%
same,growth at 0.01 µM,HOP-92 [8],90%
same,growth at 0.01 µM,HOP-62,110%
same,growth at 0.01 µM,KM12 [9],102%
same,GI50,K562 [10],2.74 µM
same,TGI,K562 [10],> 100 µM
same,GI50,Hs-578T,0.847 µM
same,TGI,Hs-578T,4.08 µM
same,growth at 0.1 µM,OVCAR-5 [11],102%
same,growth at 1 µM,MCF7,73%
same,growth at 0.1 µM,HT-29 [12],107%
same,growth at 0.1 µM,NCI-H522 [13],98%
same,growth at 0.1 µM,CCRF-CEM,81%
same,growth at 1 µM,K562 [14],76%
same,growth at 1 µM,HL-60(TB),113%
same,growth at 0.1 µM,SK-MEL-2 [15],113%
same,growth at 100 µM,DU-145,-28%
same,GI50,UO-31 [16],2.46 µM
same,TGI,UO-31 [16],25.3 µM
same,growth at 1 µM,MDA-MB-231,79%
same,growth at 0.1 µM,MOLT-4,119%
same,growth at 1 µM,OVCAR-5 [17],103%
same,growth at 1 µM,UO-31 [18],75%
same,GI50,NCI-H522 [19],5.05 µM
same,TGI,NCI-H522 [19],32.4 µM
same,growth at 100 µM,IGROV-1 [20],-10%
same,growth at 0.01 µM,IGROV-1 [21],98%
same,GI50,A498,0.32 µM
same,TGI,A498,2.34 µM
